Source: patent US11028058B2, “Heterocyclic compounds as adenosine antagonists” (NUVATION BIO INC., priority 2017, dated 2021)

Tests used:
[1] = target: adenosine A2B receptor (HEK-293-A2B cell membranes) (Homo sapiens (Human), UniProt P29275); assay: Adenosine A2B radioligand binding competition assay (3H-DPCPX)
Protocol: (§1) Binding of selected compounds to the adenosine A2A, A1, A2B, and A3 receptors was tested using a binding competition assay.
(§2) The general protocol for the radioligand binding competition assay was as follows. Competition binding was performed in duplicate in the wells of a 96 well plate (Master Block, Greiner, 786201) containing binding buffer (optimized for each receptor), membrane extracts (amount of protein/well optimized for each receptor), radiotracer (final concentration optimized for each receptor), and test compound. Nonspecific binding was determined by co-incubation with 200-fold excess of cold competitor. The samples were incubated in a final volume of 0.1 mL at 25° C. for 60 minutes and then filtered over filter plates. Filters were washed six times with 0.5 mL of ice-cold washing buffer (optimized for each receptor) and 50 μL of Microscint 20 (Packard) were added on each filter. The filter plates were sealed, incubated 15 min on an orbital shaker and scintillation counted with a TopCount for 30 sec/filter. […]

[2] = target: HEK-293 cells expressing human recombinant adenosine A2A receptor (Homo sapiens (Human), UniProt P29274); assay: cAMP assay, Assay 1 (HTRF kit); format: cell-based
Protocol: The functional activity of compounds was tested using one of the two assays to detect the present of cAMP. Activation of G-protein coupled receptors (such as A2A) results in activation of adenylcyclase which converts ATP into cAMP which is used as a downstream signaling molecule. Therefore, molecules which act as GPCR (or specifically A2A receptor) antagonists cause a decrease in intracellular cAMP concentration.
Both assays used HEK-293 cells expressing human recombinant adenosine A2A receptor were grown prior to the test in media without antibiotic.
12 μL of cells were mixed with 6 μL of the test compound at increasing concentrations and then incubated for 10 min. Thereafter 6 μL of the reference agonist was added at a final concentration corresponding to the historical EC80. The plates were then incubated for 30 min at room temperature. After addition of the lysis buffer and 1 hour incubation, cAMP concentrations were estimated, according to the manufacturer specification, with the HTRF® kit.

[3] = target: recombinant human A2A receptor (Homo sapiens (Human), UniProt P29274); assay: GTPγ35S scintillation proximity assay for A2A receptor; format: biochemical; conditions: read-out: A2A γGTP assay (% Inh Avg) @ 100 nM
Protocol: For antagonist testing, membranes extracts were prepared from HEK-293 cells expressing recombinant human A2A receptor, were mixed with GDP (volume:volume) and were incubated in assay buffer comprising 20 mM HEPES pH 7.4; 100 mM NaCl, 10 μg/mL saponin, 5 mM MgCl2 for at least 15 min on ice. In parallel, GTPγ[^35S] was mixed with the beads (volume:volume) just before starting the reaction. The following reagents were successively added in the wells of an Optiplate (Perkin Elmer): 25 μL of test compound or reference ligand, 25 μL of the membranes: GDP mix, 25 μL of reference agonist at historical EC80 and 25 μL of GTPγ[^35S] (PerkinElmer NEG030X), diluted in assay buffer to give 0.1 nM. The plate was incubated at room temperature for 1 hour. Then, 20 μL of IGEPAL was added for 30 minutes at room temperature. Following this incubation, 20 μL of beads (PVT-anti rabbit (PerkinElmer, RPNQ0016)), diluted in assay buffer at 50 mg/mL (0.5 mg/10 μL) and 20 μL of an Anti-GαS/olf antibody were added for a final incubation of 3 hours at room temperature. Then, the plates were centrifuged for 10 min at 2000 rpm, incubated at room temperature for 1 hour and counted for 1 min/well with a PerkinElmer TopCount reader.

[4] = target: adenosine A1 receptor (CHO-K1-A1 cell membranes) (Homo sapiens (Human), UniProt P30542); assay: Adenosine A1 radioligand binding competition assay (3H-DPCPX)
Protocol: as §1, §2

[5] = target: adenosine A3 receptor (CHO-K1-A3 cell membranes) (Homo sapiens (Human), UniProt P0DMS8); assay: Adenosine A3 radioligand binding competition assay (125I-AB-MECA)
Protocol: as §1
(§3) The general protocol for the radioligand binding competition assay was as follows. Competition binding was performed in duplicate in the wells of a 96 well plate (Master Block, Greiner, 786201) containing binding buffer (optimized for each receptor), membrane extracts (amount of protein/well optimized for each receptor), radiotracer (final concentration optimized for each receptor), and test compound. Nonspecific binding was determined by co-incubation with 200-fold excess of cold competitor. The samples were incubated in a final volume of 0.1 mL at 25° C. for 60 minutes and then filtered over filter plates. Filters were washed six times with 0.5 mL of ice-cold washing buffer (optimized for each receptor) and 50 μL of Microscint 20 (Packard) were added on each filter. The filter plates were sealed, incubated 15 min on an orbital shaker and scintillation counted with a TopCount for 30 sec/filter.
For the adenosine A3 radioligand binding competition assay, the following reagents were used:
CHO-K1-A3 cell membranes, 1.5 μg/well; a binding buffer comprising HEPES 25 mM pH 7.4, MgCl2 5 mM, CaCl2 1 mM, 0.5% BSA; a wash buffer comprising HEPES 25 mM pH 7.4, MgCl2 5 mM, CaCl2 1 mM; a Unifilter GF/C—treated for 2 h with 0.5% BS; and 0.4 nM of ^125I-AB-MECA as the tracer.

[6] = target: adenosine A2A receptor (Homo sapiens (Human), UniProt P29274); assay: A2A adenosine receptor radioligand binding competition assay (filter plates)
Protocol: as §1, §3
For the A2A adenosine receptor radioligand binding assay, the following modifications were made to the general protocol. GF/C filters (Perkin Elmer, 6005174), presoaked in 0.01% Brij for 2 h at room temperature were used. Filters were washed six times with 0.5 mL of ice-cold washing buffer (50 mM Tris pH 7.4) and 50 μL of Microscint 20 (Packard) was added in each well. The plates were then incubated for 15 min on an orbital shaker and then counted with a TopCount™ for 1 min/well. Another radioligand binding assay was used to evaluate the binding affinity for the adenosine A2A receptor assay was performed in duplicate in the wells of a 384 plate. Assay buffer contained DPBS 500 mM, MgCl2 0.1 mM, and 1% DMSO. Membrane-bead suspension was prepared by mixing 25.98 μL of human adenosine A2A membrane preparation (Perkin Elmer, RBHA2AM400UA) at 33.4 μg/mL, 28 μL of ADA at 20 μg/mL, and 932 μL of SPA beads at 3.33 mg/mL) and incubated the mixture for 20 min at room temperature. Mixed 20 μL of radiotracer (^3H-SCH 58261) at 15 nM to each well containing test articles at various concentrations and centrifuge the plate at 1000 rpm for 1 minute. Added 30 μL of the membraine-bead suspension to each well. Sealed the plates and incubated for 1 hr at room temperature with vigorous mixing on a plate mixer. Plates were read on Microbeta^2 (Perkin Elmer, 2450-0010).

Sequence of adenosine A2A receptor (P29274 whole entry): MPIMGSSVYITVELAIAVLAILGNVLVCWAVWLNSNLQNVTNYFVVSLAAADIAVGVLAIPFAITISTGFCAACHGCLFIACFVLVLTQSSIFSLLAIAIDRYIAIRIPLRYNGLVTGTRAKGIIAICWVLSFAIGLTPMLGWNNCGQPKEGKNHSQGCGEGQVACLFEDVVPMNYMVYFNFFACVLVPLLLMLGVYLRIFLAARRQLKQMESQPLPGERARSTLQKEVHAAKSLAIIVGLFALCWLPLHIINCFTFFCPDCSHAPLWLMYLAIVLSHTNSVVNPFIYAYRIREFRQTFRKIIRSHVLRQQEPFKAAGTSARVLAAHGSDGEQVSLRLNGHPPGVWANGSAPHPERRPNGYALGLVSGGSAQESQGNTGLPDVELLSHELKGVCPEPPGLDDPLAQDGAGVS
Sequence of HEK-293 cells expressing human recombinant adenosine A2A receptor (P29274 whole entry): as above
Sequence of adenosine A1 receptor (CHO-K1-A1 cell membranes) (P30542 whole entry): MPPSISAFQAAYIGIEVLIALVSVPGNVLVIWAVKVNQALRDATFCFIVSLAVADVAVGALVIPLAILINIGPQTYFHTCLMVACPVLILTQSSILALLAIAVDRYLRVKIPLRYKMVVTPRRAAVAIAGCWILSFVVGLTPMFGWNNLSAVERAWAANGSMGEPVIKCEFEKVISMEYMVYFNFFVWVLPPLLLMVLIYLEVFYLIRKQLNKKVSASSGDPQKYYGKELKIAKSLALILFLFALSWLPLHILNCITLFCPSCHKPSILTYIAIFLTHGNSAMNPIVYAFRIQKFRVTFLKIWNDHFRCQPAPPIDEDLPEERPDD
Sequence of adenosine A3 receptor (CHO-K1-A3 cell membranes) (P0DMS8 whole entry): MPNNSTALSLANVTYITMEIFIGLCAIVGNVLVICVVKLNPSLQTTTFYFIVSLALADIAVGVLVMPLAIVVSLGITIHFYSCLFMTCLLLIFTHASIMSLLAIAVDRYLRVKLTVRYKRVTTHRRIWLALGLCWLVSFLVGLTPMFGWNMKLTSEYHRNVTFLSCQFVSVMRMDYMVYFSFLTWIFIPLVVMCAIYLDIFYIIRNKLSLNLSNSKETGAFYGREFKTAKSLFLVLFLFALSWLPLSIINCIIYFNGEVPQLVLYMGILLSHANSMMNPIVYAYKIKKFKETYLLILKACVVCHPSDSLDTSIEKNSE
Sequence of recombinant human A2A receptor (P29274 whole entry): as the sequence (P29274 whole entry) above
Sequence of adenosine A2B receptor (HEK-293-A2B cell membranes) (P29275 whole entry): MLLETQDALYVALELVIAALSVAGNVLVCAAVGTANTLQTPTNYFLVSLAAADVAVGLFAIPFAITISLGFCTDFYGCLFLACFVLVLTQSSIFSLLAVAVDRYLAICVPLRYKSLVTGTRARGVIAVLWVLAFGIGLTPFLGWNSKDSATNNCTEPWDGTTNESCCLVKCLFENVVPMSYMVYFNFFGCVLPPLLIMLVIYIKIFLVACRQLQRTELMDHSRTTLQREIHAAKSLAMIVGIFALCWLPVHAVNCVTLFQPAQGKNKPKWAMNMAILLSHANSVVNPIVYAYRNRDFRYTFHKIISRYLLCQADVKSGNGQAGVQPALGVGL

Radioligand binding competition assay % residual binding @ 300 nM (A2B) [1]: −9% | IC50 [2]: 6 nM | inhibition at 0.1 µM ([2]; HEK293, 100 nM, read-out: A2a cAMP (% inh @ 100 nM)): 97% | inhibition at 0.1 µM [3]: 82% | Radioligand binding competition assay % residual binding @ 300 nM (A1) [4]: −3% | Radioligand binding competition assay % residual binding @ 300 nM (A3) [5]: 96% | A2A radioligand binding competition assay % residual binding @ 100 nM ([6]; 100 nM): 30% | A2A radioligand binding competition assay % residual binding @ 1000 nM ([6]; 1000 nM): 12% | IC50 ([6]; Table B1-1): 57 nM
SMILES: Nc1cnc(-c2ccc(O)c(Cl)c2)c(-c2ccccc2)n1 [Compound 1.1, 4-(5-amino-3-phenylpyrazin-2-yl)-2-chlorophenol]
